From ChEMBL document CHEMBL4043168, “The design and SAR of a novel series of 2-aminopyridine based LRRK2 inhibitors” (Bioorg Med Chem Lett, 2017) come the findings set out here.

Assay [1] addresses T1, Serine/threonine-protein kinase LATS1 (Homo sapiens) (UniProt O95835).
T1 sequence (whole entry): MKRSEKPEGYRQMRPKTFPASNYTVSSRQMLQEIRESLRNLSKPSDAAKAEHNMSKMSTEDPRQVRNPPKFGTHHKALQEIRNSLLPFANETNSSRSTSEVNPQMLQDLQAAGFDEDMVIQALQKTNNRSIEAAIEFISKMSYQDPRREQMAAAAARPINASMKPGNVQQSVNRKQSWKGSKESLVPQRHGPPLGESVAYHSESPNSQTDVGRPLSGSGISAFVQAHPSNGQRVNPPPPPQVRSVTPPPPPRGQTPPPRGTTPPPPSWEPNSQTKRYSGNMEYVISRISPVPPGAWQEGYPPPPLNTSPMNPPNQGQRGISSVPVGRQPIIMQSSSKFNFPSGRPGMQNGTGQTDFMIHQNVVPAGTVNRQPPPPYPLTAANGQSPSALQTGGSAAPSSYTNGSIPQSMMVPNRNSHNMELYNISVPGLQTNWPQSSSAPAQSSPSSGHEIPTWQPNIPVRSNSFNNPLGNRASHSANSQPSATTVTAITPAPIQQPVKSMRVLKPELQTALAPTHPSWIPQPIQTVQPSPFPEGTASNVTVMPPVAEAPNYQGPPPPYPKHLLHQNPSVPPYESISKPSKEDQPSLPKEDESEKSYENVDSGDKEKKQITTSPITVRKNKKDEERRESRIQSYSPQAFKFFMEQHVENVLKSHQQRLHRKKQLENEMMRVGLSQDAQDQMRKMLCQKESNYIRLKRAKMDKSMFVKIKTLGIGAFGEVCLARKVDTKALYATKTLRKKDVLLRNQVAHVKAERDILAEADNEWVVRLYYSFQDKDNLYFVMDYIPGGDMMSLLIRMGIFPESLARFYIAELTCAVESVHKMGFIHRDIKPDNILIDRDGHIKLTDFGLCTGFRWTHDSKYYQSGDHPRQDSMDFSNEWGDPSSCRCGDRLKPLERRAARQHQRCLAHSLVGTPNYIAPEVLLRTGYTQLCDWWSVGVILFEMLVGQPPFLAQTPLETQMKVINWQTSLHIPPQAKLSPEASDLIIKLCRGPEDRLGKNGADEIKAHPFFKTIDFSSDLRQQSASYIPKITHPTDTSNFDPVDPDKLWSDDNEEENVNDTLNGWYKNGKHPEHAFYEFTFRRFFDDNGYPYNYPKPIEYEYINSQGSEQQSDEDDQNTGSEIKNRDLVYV
Kind of assay: Inhibition of LATS1 conserved Lys1 (ALYATKTLR) in human PBMC at 0.1 uM.

Assay [2] concerns the target Mitogen-activated protein kinase kinase kinase 20 (Homo sapiens) (UniProt Q9NYL2). Kind of assay: Inhibition of ZAK conserved Lys1 (WISQDKEVAVKK) in human PBMC at 0.1 uM.
Assay [3] concerns the target Tyrosine-protein kinase Fer (Homo sapiens) (UniProt P16591). Put plainly: Inhibition of FER conserved Lys2 (TSVAVKTCKEDLPQELK) in human PBMC at 0.1 uM.
Assay [4] has as its target Cyclin-dependent kinase 2 (Homo sapiens) (UniProt P24941). Kind of assay: Inhibition of CDK2 labeling at conserved Lys2 (DLKPQNLLINTEGAIK) in human PBMC at 1 uM.
Assay [5] addresses eIF-2-alpha kinase GCN2 (Homo sapiens) (UniProt Q9P2K8). Put plainly: Inhibition of GCN2 conserved Lys2 (DLKPVNIFLDSDDHVK) in human PBMC at 1 uM.
The species entered for another assay is Homo sapiens. Kind of assay: Inhibition of p70S6K conserved Lys2 (DLKPENIMLNHQGHVK) in human PBMC at 1 uM.
The target of assay [6] is Tyrosine-protein kinase Fer (Homo sapiens) (UniProt P16591). Put plainly: Inhibition of FER conserved Lys2 (QEDGGVYSSSGLKQIPIK) in human PBMC at 1 uM.
The target in assay [7] is MAP kinase-activated protein kinase 3 (Homo sapiens) (UniProt Q16644). Put plainly: Inhibition of MAPKAPK3 ATP binding site (QVLGLGVNGKVLECFHR) in human PBMC at 1 uM.
In assay [8] the target is T2, Serine/threonine-protein kinase 3 (Homo sapiens) (UniProt Q13188).
T2 sequence (whole entry): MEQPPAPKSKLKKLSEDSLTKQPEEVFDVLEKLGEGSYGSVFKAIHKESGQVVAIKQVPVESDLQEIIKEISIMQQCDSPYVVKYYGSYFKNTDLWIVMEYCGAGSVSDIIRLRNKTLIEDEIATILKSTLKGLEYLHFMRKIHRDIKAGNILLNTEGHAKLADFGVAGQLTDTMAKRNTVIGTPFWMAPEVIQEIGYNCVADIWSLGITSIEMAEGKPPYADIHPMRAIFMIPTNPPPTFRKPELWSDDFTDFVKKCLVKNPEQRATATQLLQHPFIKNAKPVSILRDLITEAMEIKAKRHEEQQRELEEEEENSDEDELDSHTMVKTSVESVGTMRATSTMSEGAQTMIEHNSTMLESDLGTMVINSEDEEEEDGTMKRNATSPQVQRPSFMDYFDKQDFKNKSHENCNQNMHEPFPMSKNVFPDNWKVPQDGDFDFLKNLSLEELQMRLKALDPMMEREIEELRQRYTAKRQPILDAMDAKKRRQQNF
Put plainly: Inhibition of MST2 conserved Lys1 (ESGQVVAIKQVPVESDLQEIIK) in human PBMC at 1 uM.

Assay [9] concerns the target Cyclin-dependent kinase 5 (Homo sapiens) (UniProt Q00535). Put plainly: Inhibition of CDK5 labeling at conserved Lys2 (DLKPQNLLINR) in human PBMC at 0.1 uM.
The target of assay [10] is Serine/threonine-protein kinase/endoribonuclease IRE1 (Homo sapiens) (UniProt O75460). Kind of assay: Inhibition of IRE1 conserved Lys2 (DLKPHNILISMPNAHGK) in human PBMC at 1 uM.
In assay [11] the target is 5'-AMP-activated protein kinase catalytic subunit alpha-1 (Homo sapiens) (UniProt Q13131). Kind of assay: Inhibition of AMPKa1 labeling at conserved Lys1 (VAVKILNR) in human PBMC at 1 uM.
The target in assay [12] is Serine/threonine-protein kinase Nek6 (Homo sapiens) (UniProt Q9HC98). Put plainly: Inhibition of NEK6 conserved Lys2 (DIKPANVFITATGVVK) in human PBMC at 0.1 uM.
Assay [13] concerns the target Proto-oncogene tyrosine-protein kinase Src (Homo sapiens) (UniProt P12931). Kind of assay: Inhibition of SRC ATP binding site (QGAKFPIKWTAPEAALYGR) in human PBMC at 0.1 uM.
In assay [14] the target is 5'-AMP-activated protein kinase catalytic subunit alpha-1 (Homo sapiens) (UniProt Q13131). Kind of assay: Inhibition of AMPKa1 labeling at conserved Lys2 (DLKPENVLLDAHMNAK) in human PBMC at 1 uM.
In assay [15] the target is Serine/threonine-protein kinase Nek1 (Homo sapiens) (UniProt Q96PY6). Kind of assay: Inhibition of NEK1 conserved Lys2 (DIKSQNIFLTK) in human PBMC at 1 uM.
The target of assay [16] is 5'-AMP-activated protein kinase catalytic subunit alpha-2 (Homo sapiens) (UniProt P54646). Put plainly: Inhibition of AMPKa2 labeling at conserved Lys2 (DLKPENVLLDAHMNAK) in human PBMC at 1 uM.

Sequence of 5'-AMP-activated protein kinase catalytic subunit alpha-1 (Homo sapiens) (Q13131 whole entry, looked up): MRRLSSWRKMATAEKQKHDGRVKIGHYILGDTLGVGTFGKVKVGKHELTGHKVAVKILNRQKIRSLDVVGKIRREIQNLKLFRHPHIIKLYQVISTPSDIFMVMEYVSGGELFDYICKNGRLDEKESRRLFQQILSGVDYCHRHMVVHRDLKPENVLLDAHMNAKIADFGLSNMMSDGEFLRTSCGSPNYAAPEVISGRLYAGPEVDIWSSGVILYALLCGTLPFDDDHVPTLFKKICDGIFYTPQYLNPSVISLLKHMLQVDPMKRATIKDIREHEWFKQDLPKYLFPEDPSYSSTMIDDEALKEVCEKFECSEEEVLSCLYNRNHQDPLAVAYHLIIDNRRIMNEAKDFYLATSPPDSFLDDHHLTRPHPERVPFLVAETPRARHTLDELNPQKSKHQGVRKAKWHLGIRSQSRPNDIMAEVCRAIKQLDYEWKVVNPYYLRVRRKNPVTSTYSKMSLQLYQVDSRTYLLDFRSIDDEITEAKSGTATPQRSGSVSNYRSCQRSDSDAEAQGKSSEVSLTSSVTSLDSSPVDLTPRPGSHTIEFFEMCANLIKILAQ
Sequence of Tyrosine-protein kinase Fer (Homo sapiens) (P16591 whole entry, looked up): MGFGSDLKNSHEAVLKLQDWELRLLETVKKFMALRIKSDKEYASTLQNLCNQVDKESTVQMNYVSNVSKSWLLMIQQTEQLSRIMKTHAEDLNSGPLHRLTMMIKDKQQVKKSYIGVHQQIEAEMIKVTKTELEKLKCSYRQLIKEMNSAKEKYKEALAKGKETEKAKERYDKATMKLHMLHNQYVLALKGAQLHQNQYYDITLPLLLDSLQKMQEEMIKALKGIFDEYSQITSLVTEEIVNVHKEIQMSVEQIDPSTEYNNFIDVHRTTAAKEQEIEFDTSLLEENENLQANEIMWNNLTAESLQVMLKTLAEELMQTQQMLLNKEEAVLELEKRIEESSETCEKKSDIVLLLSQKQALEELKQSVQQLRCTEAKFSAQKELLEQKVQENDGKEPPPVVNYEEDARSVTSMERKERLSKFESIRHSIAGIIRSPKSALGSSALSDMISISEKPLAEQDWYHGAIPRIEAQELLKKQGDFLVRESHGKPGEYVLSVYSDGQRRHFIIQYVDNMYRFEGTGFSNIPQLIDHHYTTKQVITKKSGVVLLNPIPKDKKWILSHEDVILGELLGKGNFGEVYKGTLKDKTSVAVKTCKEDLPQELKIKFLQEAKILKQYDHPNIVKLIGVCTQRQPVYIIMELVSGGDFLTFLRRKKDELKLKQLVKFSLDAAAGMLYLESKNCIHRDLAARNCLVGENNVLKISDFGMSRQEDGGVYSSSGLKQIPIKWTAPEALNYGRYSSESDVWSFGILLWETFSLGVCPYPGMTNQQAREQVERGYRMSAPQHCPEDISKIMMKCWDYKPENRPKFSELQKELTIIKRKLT
Sequence of MAP kinase-activated protein kinase 3 (Homo sapiens) (Q16644 whole entry, looked up): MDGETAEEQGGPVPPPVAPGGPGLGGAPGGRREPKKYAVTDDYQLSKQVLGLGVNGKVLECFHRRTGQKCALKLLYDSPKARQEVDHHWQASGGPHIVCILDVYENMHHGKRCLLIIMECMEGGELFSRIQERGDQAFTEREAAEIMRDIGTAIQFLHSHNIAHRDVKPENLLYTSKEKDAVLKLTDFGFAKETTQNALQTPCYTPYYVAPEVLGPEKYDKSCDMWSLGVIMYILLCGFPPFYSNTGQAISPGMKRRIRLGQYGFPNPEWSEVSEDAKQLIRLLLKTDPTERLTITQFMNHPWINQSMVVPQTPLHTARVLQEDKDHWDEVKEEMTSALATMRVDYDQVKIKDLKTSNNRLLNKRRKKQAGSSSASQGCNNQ
Sequence of eIF-2-alpha kinase GCN2 (Homo sapiens) (Q9P2K8 whole entry): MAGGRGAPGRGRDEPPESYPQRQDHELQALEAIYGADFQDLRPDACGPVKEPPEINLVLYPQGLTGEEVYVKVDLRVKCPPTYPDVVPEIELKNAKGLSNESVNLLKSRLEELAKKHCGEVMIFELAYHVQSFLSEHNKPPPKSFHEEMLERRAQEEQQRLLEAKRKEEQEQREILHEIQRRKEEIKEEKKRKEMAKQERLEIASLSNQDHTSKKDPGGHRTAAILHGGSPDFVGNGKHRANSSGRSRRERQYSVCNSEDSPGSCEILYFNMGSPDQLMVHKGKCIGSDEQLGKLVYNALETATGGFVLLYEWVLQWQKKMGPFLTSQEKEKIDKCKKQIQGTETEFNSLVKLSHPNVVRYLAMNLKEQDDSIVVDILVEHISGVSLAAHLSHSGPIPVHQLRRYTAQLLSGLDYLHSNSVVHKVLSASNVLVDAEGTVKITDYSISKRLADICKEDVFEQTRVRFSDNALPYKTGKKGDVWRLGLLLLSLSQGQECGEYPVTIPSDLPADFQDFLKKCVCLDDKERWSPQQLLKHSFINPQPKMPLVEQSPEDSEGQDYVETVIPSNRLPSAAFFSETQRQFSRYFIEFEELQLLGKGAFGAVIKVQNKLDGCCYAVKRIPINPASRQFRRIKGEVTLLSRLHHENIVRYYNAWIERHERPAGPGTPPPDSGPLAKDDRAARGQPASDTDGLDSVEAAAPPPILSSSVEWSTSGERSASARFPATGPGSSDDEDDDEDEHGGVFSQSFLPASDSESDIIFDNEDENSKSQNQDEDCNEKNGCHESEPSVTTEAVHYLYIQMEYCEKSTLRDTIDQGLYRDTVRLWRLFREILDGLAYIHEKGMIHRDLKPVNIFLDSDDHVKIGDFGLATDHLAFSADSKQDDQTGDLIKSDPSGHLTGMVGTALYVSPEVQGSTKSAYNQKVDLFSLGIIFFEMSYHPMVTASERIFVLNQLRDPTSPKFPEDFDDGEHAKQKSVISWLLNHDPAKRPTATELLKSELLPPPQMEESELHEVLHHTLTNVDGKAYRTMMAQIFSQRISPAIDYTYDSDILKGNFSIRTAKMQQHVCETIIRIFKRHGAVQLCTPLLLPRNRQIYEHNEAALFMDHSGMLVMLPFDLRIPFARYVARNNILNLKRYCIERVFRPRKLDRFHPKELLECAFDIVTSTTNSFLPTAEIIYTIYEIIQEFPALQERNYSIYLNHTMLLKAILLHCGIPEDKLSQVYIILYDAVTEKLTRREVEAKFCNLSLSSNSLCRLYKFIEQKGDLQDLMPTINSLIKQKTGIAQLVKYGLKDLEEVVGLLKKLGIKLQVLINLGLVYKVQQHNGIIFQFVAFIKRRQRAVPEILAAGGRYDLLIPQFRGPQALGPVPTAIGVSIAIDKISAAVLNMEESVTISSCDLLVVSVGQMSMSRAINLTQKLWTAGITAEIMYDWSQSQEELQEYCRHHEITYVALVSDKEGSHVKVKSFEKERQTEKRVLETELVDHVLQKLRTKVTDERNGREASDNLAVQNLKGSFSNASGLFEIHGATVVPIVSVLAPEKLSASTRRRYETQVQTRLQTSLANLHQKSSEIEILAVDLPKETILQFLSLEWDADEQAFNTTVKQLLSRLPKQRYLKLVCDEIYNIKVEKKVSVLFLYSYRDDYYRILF
Sequence of Serine/threonine-protein kinase Nek1 (Homo sapiens) (Q96PY6 whole entry): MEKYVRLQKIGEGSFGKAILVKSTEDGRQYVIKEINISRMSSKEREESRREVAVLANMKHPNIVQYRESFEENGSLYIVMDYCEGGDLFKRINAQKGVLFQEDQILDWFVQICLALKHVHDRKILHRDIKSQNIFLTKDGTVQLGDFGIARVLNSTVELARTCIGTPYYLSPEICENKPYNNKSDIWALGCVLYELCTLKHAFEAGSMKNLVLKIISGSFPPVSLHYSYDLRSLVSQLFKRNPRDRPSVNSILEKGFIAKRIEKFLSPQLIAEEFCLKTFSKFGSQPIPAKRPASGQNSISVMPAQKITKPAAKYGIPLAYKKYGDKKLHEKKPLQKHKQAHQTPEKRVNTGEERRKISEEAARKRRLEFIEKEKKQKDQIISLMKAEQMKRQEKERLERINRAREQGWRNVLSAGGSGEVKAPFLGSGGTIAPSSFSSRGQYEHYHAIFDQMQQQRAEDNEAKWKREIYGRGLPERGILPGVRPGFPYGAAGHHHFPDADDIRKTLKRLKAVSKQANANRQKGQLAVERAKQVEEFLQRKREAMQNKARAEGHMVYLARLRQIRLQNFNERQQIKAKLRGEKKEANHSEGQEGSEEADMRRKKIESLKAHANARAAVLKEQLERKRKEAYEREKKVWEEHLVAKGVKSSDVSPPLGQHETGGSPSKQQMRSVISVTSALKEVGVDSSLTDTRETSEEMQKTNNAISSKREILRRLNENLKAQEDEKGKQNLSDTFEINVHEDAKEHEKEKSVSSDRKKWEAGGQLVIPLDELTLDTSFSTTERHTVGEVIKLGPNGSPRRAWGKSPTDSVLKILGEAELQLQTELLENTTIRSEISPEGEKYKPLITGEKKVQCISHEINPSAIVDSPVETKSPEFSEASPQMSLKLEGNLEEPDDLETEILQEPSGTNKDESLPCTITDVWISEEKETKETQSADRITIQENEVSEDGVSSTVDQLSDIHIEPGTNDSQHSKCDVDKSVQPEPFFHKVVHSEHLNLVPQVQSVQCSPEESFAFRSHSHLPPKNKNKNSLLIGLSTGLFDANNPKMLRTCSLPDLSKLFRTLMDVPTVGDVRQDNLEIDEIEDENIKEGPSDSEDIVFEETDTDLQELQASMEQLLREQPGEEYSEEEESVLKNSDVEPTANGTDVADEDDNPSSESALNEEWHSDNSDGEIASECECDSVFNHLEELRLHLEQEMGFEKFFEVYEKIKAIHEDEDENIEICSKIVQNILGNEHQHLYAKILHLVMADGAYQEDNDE
Sequence of Serine/threonine-protein kinase Nek6 (Homo sapiens) (Q9HC98 whole entry): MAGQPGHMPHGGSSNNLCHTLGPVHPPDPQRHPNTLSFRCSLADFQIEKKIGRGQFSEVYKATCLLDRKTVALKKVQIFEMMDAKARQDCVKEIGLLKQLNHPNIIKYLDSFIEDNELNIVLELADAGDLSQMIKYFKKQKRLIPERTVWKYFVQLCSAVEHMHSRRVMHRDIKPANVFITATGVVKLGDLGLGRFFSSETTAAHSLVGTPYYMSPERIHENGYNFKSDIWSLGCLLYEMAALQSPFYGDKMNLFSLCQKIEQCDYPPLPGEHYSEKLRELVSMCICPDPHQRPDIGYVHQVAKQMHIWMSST

On to `CC(C)n1cc(-c2cc(-c3ccc(CN4CCOCC4)cc3)cnc2N)nn1`, for which the inhibition in assay [1] was 23.1%; in assay [2] it was 11.3%; in assay [3] it was -1.2%; in assay [4], 16.8%; in [5] it was -2%; in the assay listed under Homo sapiens it was 6.9%. Further, the inhibition in assay [6] was 5.2%; in [7], 2.5%; in assay [8], -6%; in assay [9], -3.3%; in [10] it was 26.6%; in [11], 17.3%. The inhibition was -4.8% in assay [12]; -4.4% in assay [13]; 17.5% in assay [14]; 10% in assay [15]; 17.5% in assay [16].

Usually inhibition stands for the drop in the measured response relative to a control, in per cent.
